Assay results as given in patent US11584714B2 (priority 2018, dated 2023).
Structures can show the parent of a compound that is named as a salt. Where two headings read alike, the source gives them in different places.

Legend:
Assay type in all cases: biochemical
mMASP-2 = mMASP-2 (Mus musculus (Mouse), UniProt Q91WP0); assay: Enzymatic inhibition of mMASP-2
human α-thrombin = human α-thrombin (Homo sapiens (Human), UniProt P00734); assay: Enzymatic assay for thrombin (Boc-VPR-AMC substrate)
Lectin Pathway = assay: Lectin pathway activation assay in human serum (mannan-coated ELISA, C3c detection); conditions: 1% human serum
MASP-2 (CCP1-CCP2-SP) = MASP-2 (CCP1-CCP2-SP) (Homo sapiens (Human), UniProt O00187); assay: biochemical
MASP-2 (CCP1-CCP2-SP), sequence (O00187 445-686): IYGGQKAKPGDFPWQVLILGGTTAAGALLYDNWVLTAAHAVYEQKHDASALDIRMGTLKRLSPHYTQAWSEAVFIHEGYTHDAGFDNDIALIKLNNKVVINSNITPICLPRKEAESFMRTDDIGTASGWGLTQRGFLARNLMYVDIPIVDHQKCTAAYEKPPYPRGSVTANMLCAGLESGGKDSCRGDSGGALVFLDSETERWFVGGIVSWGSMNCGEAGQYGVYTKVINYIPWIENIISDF

[1] = selectivity for MASP-2 inhibition versus thrombin

mMASP-2, sequence (Q91WP0 20-685): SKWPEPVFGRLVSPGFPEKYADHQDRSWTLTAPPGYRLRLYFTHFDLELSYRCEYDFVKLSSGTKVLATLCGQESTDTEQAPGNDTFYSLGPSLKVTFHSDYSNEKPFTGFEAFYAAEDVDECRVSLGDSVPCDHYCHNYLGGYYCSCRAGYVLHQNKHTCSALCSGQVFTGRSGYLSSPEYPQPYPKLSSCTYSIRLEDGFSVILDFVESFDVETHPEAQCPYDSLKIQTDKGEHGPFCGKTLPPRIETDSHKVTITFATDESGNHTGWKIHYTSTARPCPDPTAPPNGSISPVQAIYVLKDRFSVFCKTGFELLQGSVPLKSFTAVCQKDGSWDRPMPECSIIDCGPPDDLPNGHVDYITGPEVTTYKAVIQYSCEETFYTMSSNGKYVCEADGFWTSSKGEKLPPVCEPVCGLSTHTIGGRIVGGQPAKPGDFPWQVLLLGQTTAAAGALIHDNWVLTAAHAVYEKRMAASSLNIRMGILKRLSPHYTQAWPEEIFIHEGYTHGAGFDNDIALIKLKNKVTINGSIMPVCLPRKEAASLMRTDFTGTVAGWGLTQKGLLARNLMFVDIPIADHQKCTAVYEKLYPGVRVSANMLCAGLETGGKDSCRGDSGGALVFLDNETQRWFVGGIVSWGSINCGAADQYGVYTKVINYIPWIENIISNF

Compound | Ki (mMASP-2; read-out: mMASP-2 Ki) [nM] | Ki (human α-thrombin; read-out: Thrombin Ki) [µM] | IC50 (Lectin Pathway) [nM] | Ki (MASP-2 (CCP1-CCP2-SP); read-out: MASP-2 Ki) [nM] | MASP-2 vs. thrombin selectivity (MASP-2 (CCP1-CCP2-SP); [1]) | Ki (human α-thrombin; Thrombin Ki (μM)) [µM] | Ki (MASP-2 (CCP1-CCP2-SP)) [nM] | MASP-2 vs. thrombin selectivity (MASP-2 (CCP1-CCP2-SP); MASP-2 inhibition versus thrombin) | Ki (mMASP-2) [nM]
Cc1cc(C)cc(C[C@@H]2CN[C@@H](C(=O)N[C@@H](C)C(=O)NCc3cc(Cl)ccc3-n3cnnn3)C2)c1 [compound 1416, (2R,4S)—N—((S)-1-((5-Chloro-2-(1H-tetrazol-1-yl)benzyl)amino)-1-oxopropan-2-yl)-4-(3,5-dimethylbenzyl)pyrrolidine-2-carboxamide Hydrochloride] | < 500 | < 0.5 | 50 to 500 | < 500 | ** (≥5.0 to <25-fold) |  |  |  | 
Cc1nc(N)ccc1CNC(=O)[C@@H]1CCN1C(=O)[C@H]1C[C@H](Cc2ccc(Br)cc2)CN1 [compound 1438, (S)—N-((6-Amino-2-methylpyridin-3-yl)methyl)-1-((2R,4S)-4-(4-bromobenzyl)pyrrolidine-2-carbonyl)azetidine-2-carboxamide Di-trifluoroacetate salt] | 500 to 2500 | < 0.5 | 500 to 5000 | < 500 | ** (≥5.0 to <25-fold) |  |  |  | 
Cc1nc(N)ccc1CNC(=O)[C@H](C)NC(=O)[C@H]1Cc2c([nH]c3ccccc23)CN1 [compound 1389, (R)—N—((S)-1-(((6-Amino-2-methylpyridin-3-yl)methyl)amino)-1-oxopropan-2-yl)-2,3,4,9-tetrahydro-1H-pyrido[3,4-b]indole-3-carboxamide Hydrochloride] | 2500 to 10000 | > 25 | 500 to 5000 | < 500 | **** (≥100-fold) |  |  |  | 
Cc1nc(N)ccc1CNC(=O)[C@H](C)NC(=O)[C@H]1C[C@H](Cc2ccc(Br)cc2)CN1 [compound 1350, (2R,4S)—N—((S)-1-(((6-Amino-2-methylpyridin-3-yl)methyl)amino)-1-oxopropan-2-yl)-4-(4-bromobenzyl)pyrrolidine-2-carboxamide Dihydrochloride] | < 500 |  | 500 to 5000 | < 500 | **** (≥100-fold) | 2.5 to 10 |  |  | 
Cc1cnc(NCCc2ccccc2)c(=O)n1CC(=O)NCc1ccc2c(N)nccc2c1 [compound 1491, N-((1-Aminoisoquinolin-6-yl)methyl)-2-(6-methyl-2-oxo-3-(phenethylamino)pyrazin-1(2H)-yl)acetamide Trifluoroacetamide salt] | < 500 | < 0.5 | 5000 to 50000 |  | −− (<1.0-fold) |  | 500 to 2500 |  | 
Cc1nc(N)ccc1CNC(=O)[C@H](C)NC(=O)[C@H]1C[C@H](Cc2ccc(C(C)(C)C)cc2)CN1 [compound 1380, (2R,4S)—N—((S)-1-(((6-Amino-2-methylpyridin-3-yl)methyl)amino)-1-oxopropan-2-yl)-4-(4-(tert-butyl)benzyl)pyrrolidine-2-carboxamide Dihydrochloride] | < 500 | > 25 | > 50000 |  | *** (≥25 to <100-fold) |  | 500 to 2500 |  | 
C[C@H](NC(=O)[C@H](N)CCc1ccccc1)C(=O)NCc1ccc2c(N)ncnc2c1 [compound 1060, (R)-2-Amino-N—((S)-1-(((4-aminoquinazolin-7-yl)methyl)amino)-1-oxopropan-2-yl)-4-phenylbutanamide Dihydrochloride] | > 25000 | > 25 | > 50000 |  |  |  |  | *** (25 to 100-fold) | 
Cc1nc(N)ccc1CNC(=O)[C@H](C)NC(=O)[C@H]1C[C@H](Cc2ccc(C#N)cc2)CN1 [compound 1428, (2R,4S)—N—((S)-1-(((6-Amino-2-methylpyridin-3-yl)methyl)amino)-1-oxopropan-2-yl)-4-(4-cyanobenzyl)pyrrolidine-2-carboxamide Di-trifluoroacetate salt] | 500 to 2500 |  | 500 to 5000 | < 500 | **** (≥100-fold) | 10 to 25 |  |  | 
Cc1nc(N)ccc1CNC(=O)[C@H](C)NC(=O)[C@H]1CN(Cc2ccccc2)CCN1 [compound 1347, (R)—N—((S)-1-(((6-Amino-2-methylpyridin-3-yl)methyl)amino)-1-oxopropan-2-yl)-4-benzylpiperazine-2-carboxamide Dihydrochloride] | < 500 |  | < 50 | < 500 | *** (≥25 to <100-fold) | 0.5 to 2.5 |  |  | 
Cc1nc(N)ccc1CNC(=O)[C@H](C)NC(=O)[C@H]1C[C@H](Cc2ccc(-c3ccc(F)cc3C(N)=O)cc2)CN1 [compound 1397, (2R,4S)—N—((S)-1-(((6-amino-2-methylpyridin-3-yl)methyl)amino)-1-oxopropan-2-yl)-4-((2′-carbamoyl-4′-fluoro-[1,1′-biphenyl]-4-yl)methyl)pyrrolidine-2-carboxamide Di-trifluoroacetate salt] | < 500 | > 25 | 50 to 500 | < 500 | **** (≥100-fold) |  |  |  | 
Cc1cc(Cl)cc(CNC(=O)[C@H](C)NC(=O)[C@H]2C[C@H](Cc3ccc4ccccc4c3)CN2)c1O [compound 1370, (2R,4S)—N—((S)-1-((5-Chloro-2-hydroxy-3-methylbenzyl)amino)-1-oxopropan-2-yl)-4-(naphthalen-2-ylmethyl)pyrrolidine-2-carboxamide] |  | > 25 | 50 to 500 | < 500 |  |  |  |  | 500 to 2500
C[C@H](NC(=O)[C@@H](CCc1ccccc1)NCCc1ccc(Cl)cc1)C(=O)NCc1ccc(C(=N)N)cc1 [compound 1339, (R)—N—((S)-1-((4-Carbamimidoylbenzyl)amino)-1-oxopropan-2-yl)-2-((4-chlorophenethyl)amino)-4-phenylbutanamide Di-trifluoroacetate salt] | < 500 | < 0.5 | < 50 | < 500 | ** (≥5.0 to <25-fold) |  |  |  | 
Cc1nc(N)ccc1CNC(=O)[C@H](C)NC(=O)[C@H]1C[C@H](Cc2ccc(Oc3ccccc3)cc2)CN1 [compound 1430, (2R,4S)—N—((S)-1-(((6-Amino-2-methylpyridin-3-yl)methyl)amino)-1-oxopropan-2-yl)-4-(4-phenoxybenzyl)pyrrolidine-2-carboxamide Di-trifluoroacetate salt] | < 500 | > 25 | 500 to 5000 | < 500 | **** (≥100-fold) |  |  |  | 
Cc1nc(N)ccc1CNC(=O)[C@H](C)NC(=O)[C@H]1C[C@H](Cc2cc(Cl)cc3ccccc23)CN1 [compound 1432, (2R,4S)—N—((S)-1-(((6-Amino-2-methylpyridin-3-yl)methyl)amino)-1-oxopropan-2-yl)-4-((3-chloronaphthalen-1-yl)methyl)pyrrolidine-2-carboxamide Dihydrochloride] | < 500 |  | 500 to 5000 | < 500 | **** (≥100-fold) | 10 to 25 |  |  | 
Cc1[nH]c(C(=O)N[C@@H](C)C(=O)NCc2ccc(C(=N)N)cc2)cc1-c1ccccc1 [compound 1239, (S)—N-(1-((4-Carbamimidoylbenzyl)amino)-1-oxopropan-2-yl)-5-methyl-4-phenyl-1H-pyrrole-2-carboxamide] | < 500 |  | 500 to 5000 | < 500 | ** (≥5.0 to <25-fold) | 2.5 to 10 |  |  | 
